The numbers were not newly measured in patent publication US6001802A, “Platelet-derived growth factor analogues” (Trigen Limited, priority 1993, dated 1999), which cites them from elsewhere.

Where no end group is shown, it is not given here.

Data set [1] concerns smooth muscle cells of injured arteries. Particulars: administration of PDGF, rat angioplasty model [19].
In another data set the target is PDGF β-receptors (Homo sapiens, UniProt P09619). Particulars: reference [6].
Chain of PDGF β-receptors (P09619 33-1106): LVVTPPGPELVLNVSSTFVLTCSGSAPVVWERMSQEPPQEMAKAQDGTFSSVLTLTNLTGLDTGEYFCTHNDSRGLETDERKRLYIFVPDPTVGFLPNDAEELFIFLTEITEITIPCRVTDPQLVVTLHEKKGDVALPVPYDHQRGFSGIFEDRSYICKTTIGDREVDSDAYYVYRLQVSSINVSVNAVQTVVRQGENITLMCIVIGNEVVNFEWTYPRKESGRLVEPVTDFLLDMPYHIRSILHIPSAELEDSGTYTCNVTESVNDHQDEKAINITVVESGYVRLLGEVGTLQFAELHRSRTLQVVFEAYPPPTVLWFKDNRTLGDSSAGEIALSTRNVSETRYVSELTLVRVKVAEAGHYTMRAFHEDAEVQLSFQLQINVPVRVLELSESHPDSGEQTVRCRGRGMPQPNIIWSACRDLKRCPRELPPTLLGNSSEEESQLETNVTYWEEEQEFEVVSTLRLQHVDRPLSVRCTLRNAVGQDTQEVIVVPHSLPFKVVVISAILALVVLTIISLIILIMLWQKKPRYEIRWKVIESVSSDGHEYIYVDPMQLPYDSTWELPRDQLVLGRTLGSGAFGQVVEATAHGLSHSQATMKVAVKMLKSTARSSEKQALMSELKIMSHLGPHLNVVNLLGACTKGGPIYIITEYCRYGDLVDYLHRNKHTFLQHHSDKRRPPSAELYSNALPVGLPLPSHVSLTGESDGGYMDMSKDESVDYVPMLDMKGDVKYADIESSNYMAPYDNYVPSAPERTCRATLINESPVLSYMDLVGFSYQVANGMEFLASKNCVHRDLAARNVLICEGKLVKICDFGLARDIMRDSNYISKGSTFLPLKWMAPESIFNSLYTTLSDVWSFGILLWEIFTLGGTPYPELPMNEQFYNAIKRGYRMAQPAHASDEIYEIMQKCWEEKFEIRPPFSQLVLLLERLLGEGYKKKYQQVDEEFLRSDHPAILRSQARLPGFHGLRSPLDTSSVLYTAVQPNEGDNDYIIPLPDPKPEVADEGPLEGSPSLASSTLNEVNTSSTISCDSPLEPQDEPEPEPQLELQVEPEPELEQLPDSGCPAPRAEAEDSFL

For “PDGF: 28-31 KD dimeric, highly basic glycoprotein, potent mitogen for connective tissue cells”, in data set [1], the “SMC migration from the media to the intima” value is 20 fold and the “SMC proliferation in the media” value is on record as 2-3 fold.
For “ANFLVW - - - EIVRKKP (also: N-terminal ANFLVW segment joined by an unspecified link (- - -)) [literature peptide of PDGF-B chain residues 35-40 and 78-83 [6]]”, the “antagonist for PDGF” value with PDGF β-receptors is on record as “effective as an antagonist for PDGF”.
